Tested on: S. aureus strains
Assay type: cell-based
Conditions: resistant or intermediate strains, in the presence of AP-SA02
Protocol: Grey boxes indicate lines on graph depicted in FIG. 5B. […] Vancomycin, 16 μg/mL; AP-SA02, 0.1 pg/mL.
FIG. 6A is data showing bacterial growth measured by turbidity (absorbance at 600 nm) in the presence of AP-SA02 and vancomycin in a checkerboard assay. Grey boxes show lines on graph depicted in FIG. 6B. […] Vancomycin, 2 μg/mL.
Standard therapy for subjects with a S. aureus infection includes vancomycin and daptomycin. Since subjects who receive AP-SA02 are likely to be on these therapies, the effect of AP-SA02 on these antibiotics and vice versa was assessed. Using the standard checkerboard assay, the minimum inhibitory concentration of each antimicrobial alone or in combination with each other, was used to calculate whether two antimicrobials are synergistic, antagonistic, or indifferent (Table 3).

CN[C@H](CC(C)C)C(=O)N[C@H]1C(=O)N[C@@H](CC(N)=O)C(=O)N[C@H]2C(=O)N[C@H]3C(=O)N[C@H](C(=O)N[C@H](C(=O)O)c4cc(O)cc(O)c4-c4cc3ccc4O)[C@H](O)c3ccc(c(Cl)c3)Oc3cc2cc(c3O[C@@H]2O[C@H](CO)[C@@H](O)[C@H](O)[C@H]2O[C@H]2C[C@](C)(N)[C@H](O)[C@H](C)O2)Oc2ccc(cc2Cl)[C@H]1O [vancomycin]
breakpoint for vancomycin in the presence of phage: 0.5 to 2 µg/mL

Reference: patent US20260041723A1, “BACTERIOPHAGE COMPOSITIONS FOR TREATING STAP[…]” (priority 2020, published 2026)
